Data taken from PMC12396409, “Screening and hit evaluation of a microbial metabolite library against the pathogenic Plasmodium falciparum and Toxoplasma gondii parasites” (International Journal for Parasitology: Drugs and Drug …, 2025).
Read-outs that look alike come from different tables or passages of the source.

How the values were obtained:
[1] = system: T. gondii RH strain (RH-Tub-eYFP) tachyzoites; assay: microbe, parasite or virus in culture; type: cell-based, Toxoplasma gondii; conditions: 72 h, 72 h; for percent parasite growth at 2 µg/mL: Toxoplasma gondii
[2] = system: P. falciparum 3D7 parasites; assay: P. falciparum growth inhibition assay, 1-cycle (72 h treatment), SYBR DNA staining (library screen at 2 μg/mL and dose-response); type: cell-based, Plasmodium falciparum
[3] = system: P. falciparum 3D7 parasites; assay: P. falciparum growth inhibition assay, 2-cycle (120 h treatment), delayed-death screen and dose-response; type: cell-based, Plasmodium falciparum
[4] = T. gondii, screen at 2 μg/mL, replicate 1, read-out: Tg_72h_%Growth_Rep1
[5] = T. gondii, screen at 2 μg/mL, replicate 2, read-out: Tg_72h_%Growth_Rep2
[6] = Plasmodium falciparum, 3D7, P. falciparum, 72 h, screen at 2 μg/mL, replicate 1, read-out: Pf_72h_%Growth_Rep1
[7] = Plasmodium falciparum, 3D7, P. falciparum, 72 h, screen at 2 μg/mL, replicate 2, read-out: Pf_72h_%Growth_Rep2
[8] = Plasmodium falciparum, 3D7, P. falciparum, 120 h, screen at 2 μg/mL, replicate 1, read-out: Pf_120h_%Growth_Rep1
[9] = Plasmodium falciparum, 3D7, P. falciparum, 120 h, screen at 2 μg/mL, replicate 2, read-out: Pf_120h_%Growth_Rep2

COc1c(OC/C=C(\C)CCC=C(C)C)ccc2ccc(=O)oc12 [Collinin]
percent parasite growth at 2 µg/mL [1, 4]: 77.5% | percent parasite growth at 2 µg/mL [1, 5]: 110% | activity at 2 µg/mL [2, 6]: 69.5% | activity at 2 µg/mL [2, 7]: 86.1% | activity at 2 µg/mL [3, 8]: 60.9% | activity at 2 µg/mL [3, 9]: 78%

COC1=C(N)C(=O)c2nc(-c3nc(C(=O)O)c(C)c(-c4ccc(OC)c(OC)c4O)c3N)ccc2C1=O [Streptonigrin]
percent parasite growth at 2 µg/mL ([1]; T. gondii, parasite screen 2 μg/mL, % growth, replicate 1, read-out: Tg_72h_%Growth_Rep1): 3.6% | percent parasite growth at 2 µg/mL ([1]; T. gondii, parasite screen 2 μg/mL, % growth, replicate 2, read-out: Tg_72h_%Growth_Rep2): 2.59% | activity at 2 µg/mL ([2]; Plasmodium falciparum, 3D7, 72 h, P. falciparum, 72 h, parasite screen 2 μg/mL, % growth, replicate 1, read-out: Pf_72h_%Growth_Rep1): 2.61% | activity at 2 µg/mL ([2]; Plasmodium falciparum, 3D7, 72 h, P. falciparum, 72 h, parasite screen 2 μg/mL, % growth, replicate 2, read-out: Pf_72h_%Growth_Rep2): -8.29% | activity at 2 µg/mL ([3]; Plasmodium falciparum, 3D7, 120 h, P. falciparum, 120 h, parasite screen 2 μg/mL, % growth, replicate 1, read-out: Pf_120h_%Growth_Rep1): 43.2% | activity at 2 µg/mL ([3]; Plasmodium falciparum, 3D7, 120 h, P. falciparum, 120 h, parasite screen 2 μg/mL, % growth, replicate 2, read-out: Pf_120h_%Growth_Rep2): 6.18%

Cc1cc(=O)c2c(o1)O[C@@]1(C)CC[C@@H]3[C@@]4(C)CC[C@H](O)C(C)(C)[C@@H]4CC[C@@]3(C)[C@@H]1C2 [Chevalone E]
Tg_72h_%Growth_Rep1 ([1]; T. gondii, screen at 2 μg/mL, replicate 1): 83.71% | Tg_72h_%Growth_Rep2 ([1]; T. gondii, screen at 2 μg/mL, replicate 2): 88.30% | Pf_72h_%Growth_Rep1 ([2]; P. falciparum, 72 h, screen at 2 μg/mL, replicate 1): 103.28% | Pf_72h_%Growth_Rep2 ([2]; P. falciparum, 72 h, screen at 2 μg/mL, replicate 2): 92.51% | Pf_120h_%Growth_Rep1 ([3]; P. falciparum, 120 h, screen at 2 μg/mL, replicate 1): 162.52% | Pf_120h_%Growth_Rep2 ([3]; P. falciparum, 120 h, screen at 2 μg/mL, replicate 2): 100.96%

C/C=C/C/C=C/CCC(=O)[C@H]1O[C@H]1C(N)=O [Cerulenin]
percent parasite growth at 2 µg/mL [1, 4]: 79% | percent parasite growth at 2 µg/mL [1, 5]: 81.8% | activity at 2 µg/mL [2, 6]: 86.4% | activity at 2 µg/mL [2, 7]: 80.4% | activity at 2 µg/mL [3, 8]: 137% | activity at 2 µg/mL [3, 9]: 85.1%

CC[C@]1(C)C[C@@H](OC(=O)CSc2nnc(N)[nH]2)[C@]2(C)[C@H](C)CC[C@]3(CCC(=O)[C@H]32)[C@@H](C)[C@@H]1O [Azamulin]
percent parasite growth at 2 µg/mL ([1]; library screen at 2 μg/mL, % growth, replicate 1, read-out: Tg_72h_%Growth_Rep1): 65.2% | percent parasite growth at 2 µg/mL ([1]; library screen at 2 μg/mL, % growth, replicate 2, read-out: Tg_72h_%Growth_Rep2): 70.7% | Screen (T. gondii) ([1]; library screen at 2 μg/mL, RH strain): I | activity at 2 µg/mL ([2]; Plasmodium falciparum, 3D7; P. falciparum, 2 μg/mL, 72 h; read-out: 1) Growth (%) at 72 h): 61.2% | activity at 2 µg/mL ([2]; Plasmodium falciparum, 3D7, library screen at 2 μg/mL, 72 h, % growth, replicate 1, read-out: Pf_72h_%Growth_Rep1): 59.3% | activity at 2 µg/mL ([2]; Plasmodium falciparum, 3D7, library screen at 2 μg/mL, 72 h, % growth, replicate 2, read-out: Pf_72h_%Growth_Rep2): 63.1% | delayed-death activity in the 120 h screen against P. falciparum ([3]; 2 μg/mL, criteria: ≥40 % growth at 72 h, ≤20 % growth at 120 h, at least 5-fold): delayed-death activity | 3) Fold change (72 h/120 h) ([3]; P. falciparum, growth at 72 h / growth at 120 h, 2 μg/mL): 6.9 | activity at 2 µg/mL ([3]; Plasmodium falciparum, 3D7; P. falciparum, 2 μg/mL, 120 h; read-out: 2) Growth (%) at 120 h): 8.89% | activity at 2 µg/mL ([3]; Plasmodium falciparum, 3D7, library screen at 2 μg/mL, 120 h, % growth, replicate 1, read-out: Pf_120h_%Growth_Rep1): 15.6% | activity at 2 µg/mL ([3]; Plasmodium falciparum, 3D7, library screen at 2 μg/mL, 120 h, % growth, replicate 2, read-out: Pf_120h_%Growth_Rep2): 2.17%

CCCC(=O)OC1C(C)OC(OC2C(C)OC(OC3C(CC=O)CC(C)C(O)C=CC=CCC(C)OC(=O)CC(O)C3OC)C(O)C2N(C)C)CC1(C)O (stereo not drawn) [BIA-L1357]
Tg_72h_%Growth_Rep1 ([1]; T. gondii RH, library screen at 2 μg/mL, % growth, replicate 1): 30.88% | Tg_72h_%Growth_Rep2 ([1]; T. gondii RH, library screen at 2 μg/mL, % growth, replicate 2): 21.24% | Pf_72h_%Growth_Rep1 ([2]; P. falciparum 3D7, 72 h, library screen at 2 μg/mL, % growth, replicate 1): 53.81% | Pf_72h_%Growth_Rep2 ([2]; P. falciparum 3D7, 72 h, library screen at 2 μg/mL, % growth, replicate 2): 78.28% | Pf_120h_%Growth_Rep1 ([3]; P. falciparum 3D7, 120 h, library screen at 2 μg/mL, % growth, replicate 1): 3.21% | Pf_120h_%Growth_Rep2 ([3]; P. falciparum 3D7, 120 h, library screen at 2 μg/mL, % growth, replicate 2): 21.14%

C/C=C(\C)[C@H](O)[C@H](C)/C=C(C)/C=C/C/C(C)=C/Cc1oc(OC)c(C)c(=O)c1C [Actinopyrone A]
Tg_72h_%Growth_Rep1 ([1]; library screen at 2 μg/mL, % growth, replicate 1): 80.38% | Tg_72h_%Growth_Rep2 ([1]; library screen at 2 μg/mL, % growth, replicate 2): 90.86% | Pf_72h_%Growth_Rep1 ([2]; library screen at 2 μg/mL, 72 h, % growth, replicate 1): 87.45% | Pf_72h_%Growth_Rep2 ([2]; library screen at 2 μg/mL, 72 h, % growth, replicate 2): 86.38% | Pf_120h_%Growth_Rep1 ([3]; library screen at 2 μg/mL, 120 h, % growth, replicate 1): 139.24% | Pf_120h_%Growth_Rep2 ([3]; library screen at 2 μg/mL, 120 h, % growth, replicate 2): 89.64%

CO[C@H]1C[C@H](O[C@@H]2/C(C)=C/C[C@@H]3C[C@@H](C[C@]4(CC[C@H](C)[C@@H](C5CCCCC5)O4)O3)OC(=O)[C@@H]3C=C(C)/C(=N/O)[C@H]4OC/C(=C\C=C\[C@@H]2C)[C@]43O)O[C@@H](C)[C@@H]1O [selamectin, reference compound]
percent parasite growth at 2 µg/mL ([1]; read-out: Tg_72h_%Growth_Rep1): 116% | percent parasite growth at 2 µg/mL ([1]; read-out: Tg_72h_%Growth_Rep2): 78.2% | selectivity for P. falciparum in the screens [2]: selective for P. falciparum | activity at 2 µg/mL ([2]; Plasmodium falciparum, 3D7, P. falciparum, 72 h, parasite screen 2 μg/mL, % growth, replicate 1, read-out: Pf_72h_%Growth_Rep1): 3.56% | activity at 2 µg/mL ([2]; Plasmodium falciparum, 3D7, P. falciparum, 72 h, parasite screen 2 μg/mL, % growth, replicate 2, read-out: Pf_72h_%Growth_Rep2): 6.13% | activity at 2 µg/mL ([3]; Plasmodium falciparum, 3D7, P. falciparum, 120 h, parasite screen 2 μg/mL, % growth, replicate 1, read-out: Pf_120h_%Growth_Rep1): 2.99% | activity at 2 µg/mL ([3]; Plasmodium falciparum, 3D7, P. falciparum, 120 h, parasite screen 2 μg/mL, % growth, replicate 2, read-out: Pf_120h_%Growth_Rep2): 8.34%
